The OligoGym collection
These antisense oligonucleotides have a phosphorothioate backbone; sugars and methylation of C are not fully specified.

What follows are sequences tested against MAP2K4. Settings: ASO.
Also: test concentration or dose not given here.

Sequence	remaining target (mRNA or protein) (fraction of control)
AAATTTGGCTGAGCACATCG	0.53
AACACCAATCTTATTGCACA	0.98
AAGGATGCACGTTCTAGGTG	0.55
AATCGACATACATGGGAGAG	0.55
ACCACTCACAGTGCTGCTTC	0.68
AGACCTGGACCAGTGATGGC	0.6
ATATTTCCACTTCTGTCCAG	0.67
ATGCTGCTGACGGCCGGGTG	0.76
ATGGAGGATGATGGCTTGCT	0.83
ATGGGAGAGCTGGGAGTAGC	≥ 1
CAACTTCAGTGCTTTGCGTT	0.42
CACACAATAGAACGGTCAGA	0.9
CACCTTCTTTGACAAGTGGC	0.42
CACTACTCCGCATTACTACA	0.56
CAGTCTCTCTATGTGTGGGT	0.69
GAAATATATAGCTGCTACAA	≥ 1
GAGATAATCACTTTTGAATT	≥ 1
GAGCCGCCGCCGCCGCTCGG	≥ 1
GAGTAAACCTTGCTGTAGAT	0.73
GATATCAATCGACATACATG	0.83

Sequence	remaining target (mRNA or protein) (fraction of control)
GATCCTCATCTGGTCCAATG	0.6
GATTTTGCCTAAAATTTCTT	≥ 1
GCCTCTTGTAACAGTGCTGA	0.47
GCTCGGGCTCGGAGCCGCCA	0.47
GCTGTGCAAGCTCTTCTCAC	0.63
GGAGACACAGCAATACGTGC	0.61
GGAGCCGCCATTGTTGGGAG	0.91
GGCTCGGAGCCGCCATTGTT	0.56
GTCTGATGTAGCAGCGATAT	0.53
GTGAAATCCCAGTGTTGTTC	0.91
GTTCATCACAAAAGAGCAGG	0.89
TAGAAATGAATTTAAGATGT	≥ 1
TAGAGTCTGATGTAGCAGCG	0.79
TAGCAGCGATATCAATCGAC	0.55
TATCACATCAGTAATCTATT	≥ 1
TATTTTAATGTTCACCTCTT	≥ 1
TGATGTAGCAGCGATATCAA	0.72
TGTGTCCTTCCAGGATTTGG	0.7
TTTAAACACTAGCGATTATG	≥ 1
TTTGTTTTAATAAAGATACA	0.88

Each sequence was assayed against BIRC3. Settings: ASO.

Sequence	remaining target (mRNA or protein) (fraction of control)
AAATCTTGATTTGCTCTG	0.93
AACATCATGTTCTTGTTC	0.91
AAGAAGGAGCACAATCTT	0.3
AATTGTTCTTCCACTGGT	≥ 1
ACCATATTTCACTGATTC	0.3
ACTGAAGACATTTTGAAT	0.38
AGAGCCACGGAAATATCC	0.91
AGCAAGCCACTCTGTCTC	0.5
AGCAGGAAAAGTGGAATA	≥ 1
ATATAACACAGCTTCAGC	≥ 1
ATTTGTTACTGAAGAAGG	≥ 1
ATTTTAATTAGAAGCACT	≥ 1
CAAACGTGTTGGCGCTTT	0.65
CACAAGACCTAACTCAAA	0.73
CATGTCCCTAAAATGTCA	≥ 1
CCTTCGATGTATAGGACA	≥ 1
CTAACTCAAAGGAGGAAA	≥ 1
CTGAAATTTTGATTGAAT	0.86
CTTAGAGGTACGTAAAAT	0.71
CTTCTCCAGGCTACTAGA	0.5
GAAACCAAATTAGGATAA	0.88
GCACTTTTATTTCTTAGA	0.3
GCAGCATTAATCACAGGA	≥ 1
GCATGGCTTTGCTTTTAT	≥ 1
GCTCTGCTGTCAAGTGTT	0.43
GGGTCTCAGTATGCTGCC	0.79
GGTCAACTTCTCCAGGCT	0.35
GTAAGTAATCTGGCATTT	≥ 1
